For the assay, the system named is tomato leaf transpiration. The assay is described as follows: tomato leaf transpiration inhibition bioassay (foliar application, porometer). In kind it is in vivo, Tomato (variety: Rutgers). The following applies: 25 ppm ABA analog foliar applied; for Transpiration rate (% of control): 20 mL/6 plants. The procedure: ABA analog effectiveness may be measured experimentally by quantifying the inhibition of transpiration in tomato leaves; this is a reliable laboratory bioassay of the level of ABA activity.
All the research studies were conducted in the greenhouse at the research farm of Valent BioSciences Corporation (Long Grove, Ill.). Tomato (variety: Rutgers) seeds were sown in 18-cell flats filled with Promix PGX (available from Premier Horticulture Inc. Quakertown, Pa.) three weeks for germination and initial growth. Plants were then transplanted into pots (18 cm in diameter and 18 cm in height) filled with Promix BX (available from Premier Horticulture Inc. Quakertown, Pa.) and grown for one or two more weeks before treatment, depending on greenhouse temperature. During growing periods, plants received daily irrigation and weekly fertilizer (1 g/L all purpose fertilizer 20-20-20, The Scotts Company, Marysville, Ohio).
Chemical solutions were prepared with distilled water. ABA analogs, 8′ acetylene-ABA, acid (PBI-524) and 8′ acetylene-ABA methyl ester (PBI-429) were available from Plant Biotechnology Institute, National Research Council of Canada (Saskatoon, Saskatchewan, Canada). 25 ppm PBI-429 or 25 ppm PBI-524 was prepared by dissolving 25 mg chemical in 1 L distilled water.
Tween 20 and Brij 98 were available from Uniqema (New Castle, Del.). Silwet L-77 was available from GE Silicones (Wilton, Conn.). Agral 90 was available from Norac Concept. Inc. (Orleans, Ontario, Canada). Kinetic was available from Setre Chemical Company (Memphis, Tenn.). Capsil was available from Aquatrols (Paulsboro, N.J.). Urea and ammonium nitrate (NH4NO3) were available from Sigma-Aldrich (St. Louis, Mo.). Ethyl lactate was available from Fluka Chemie (GmbH, Buchs, Germany). Surfactant was added to 250-ppm ABA or 25-ppm ABA analogs at the concentration of 0.05% or 0.5% (v/v). Since Brij 98 was a waxy substance and difficult to dissolve in water, a stock solution of 25% Brij 98 was prepared by dissolving 25 g Brij 98 in 75 g ethyl lactate and this solution was easily dissolve in water.
Chemical solutions were foliar applied to tomato plant leaves at the rate of 20 mL/6 plants. Plants were then placed in a transparent chamber with humidity controlled at relative humidity 40 to 60%. […] The transpiration rate of each treatment was calculated as the percentage of that of control at each day to reduce day-to-day variation caused by changes of environmental condition such as light intensity and temperature.
All experiments were randomized complete block experimental design. Data were analyzed by analysis of variance. Duncan's new multiple range tests at α=0.05 were used for mean separations.

Setting [1] is: average over 7 days (days 1, 2, 3, 4, 7).

Several values for one entry are separate records, joined by “and”; a condition that tells them apart may be missing. Equal values may be shown once.

Take `C#CC1(C)CC(=O)C=C(C)C1(O)/C=C/C(C)=C\C(=O)OC` (stereo not shown) [PBI-429, 8′ acetylene-ABA methyl ester]: the “Transpiration rate (% of control)” value by setting is: (1 day after treatment) 102 % of control and 81 % of control and 77 % of control; (2 days after treatment) 87 % of control and 64 % of control and 60 % of control; (3 days after treatment) 86 % of control and 69 % of control and 71 % of control; (4 days after treatment) 77.52 % of control and 78 % of control and 81 % of control and 77 % of control; (7 days after treatment) 95 % of control and 73 % of control. Also, the “Transpiration rate (% of control), Average” value (average of days 1, 2, 3 (Table 11)) is 70 % of control and the “Transpiration rate (% of control), Average” value under setting [1] is given as 74 % of control.

With `C#CC1(C)CC(=O)C=C(C)C1(O)C=CC(C)=CC(=O)O` (stereo not shown) [PBI-524, 8′ acetylene-ABA, acid], the “Transpiration rate (% of control)” value runs as follows: (1 day after treatment) 95 % of control and 81 % of control; (2 days after treatment) 87 % of control and 63 % of control; (3 days after treatment) 93 % of control and 69 % of control; (4 days after treatment) 92 % of control and 79 % of control; (7 days after treatment) 101 % of control and 91 % of control. Further, under setting [1], the “Transpiration rate (% of control), Average” value was 77 % of control.

The record behind these values is patent US20080227643A1, “Use of adjuvants to improve abscisic acid analog and abscisic acid derivative performance” (priority 2007, published 2008).
